One series has as its system rat papillary muscles. Nature of the series: glucose uptake by insulin.
Another series has as its system KBM-5 cells. To be noted: KBM-5, 72 h, with TNF, paclitaxel or doxorubicin.
The subject of the next series is MCF-7 cells. The series can be described thus: Apoptosis analysis (annexin V and PI). The class given is cell-based. To be noted: MCF-7, 60 μM, 24 hours (control 1%±0.5%). How it is done:
Apoptosis analysis: 5×10^6 cells were placed in the appropriate culture media containing 10% FCS, and treated with either control vehicle or various concentrations of HNK, as indicated for 24 h. Following treatment, cells were harvested, and stained with PI and Annexin V, using the Annexin V-PE Apoptosis Detection Kit I (BD Pharmingen, San Diego, Calif.) according to the manufacturer protocol. Flow cytometry was performed at the Flow Cytometry Core facility of Cedars-Sinai Medical Center, using FACScan (Becton Dickinson, Franklin Lakes, N.J.). For studies using z-VAD-fmk to inhibit caspase activity, 5×10^6 cells were incubated with 50 μM z-VAD-fmk for 60 minutes prior to addition of HNK.
HNK induces apoptosis in breast cancer cell lines. […] The ability of HNK to induce apoptosis and cell death in breast cancer cell lines was investigated. MCF-7 cells were treated with HNK (60 μM for six or 24 hours) and apoptosis and cell death were assessed using annexin V and PI staining (FIG. 5 A). […] Upregulation of BAX was also noticed, (85% increase at 40 μM compared to control, as analyzed by densitometry) but no significant changes in BCL-2 or BAD levels were observed. Only partial inhibition of apoptosis was observed following pretreatment with z-VAD-fmk.

The subject of a further series is NF-kB in A293 cells. Nature of the series: NF-kB-dependent reporter gene (SEAP) transcription. The class given is cell-based, human. To be noted: A293, 25 mM (printed) honokiol 12 h. On the technique in general: In a reporter assay the amount or activity of a reporter protein is the signal.
The test system of a further series is HUVEC. The series can be described thus: In Vitro Angiogenesis Assay (tube formation). To be noted: 8 ug/ml, 6 h. The class given is cell-based, human.
For a further series, the system named is RPM18226 cells. Nature of the series: APO2.7 staining. The class given is cell-based, human. To be noted: RPM18226, 10 ug/ml, 24 h. How it is done:
(§1) Assessment of HNK-induced cytotoxicity against patient MM cells: […] A CD38^high fraction enriched for MM cells was determined in side and forward scatter panel in each case. The expression of CD138 on gated cells was also evaluated. After HNK-treatment for 48 h, cells were harvested and percentage of CD38^high cells with or without HNK-treatment was evaluated. Cell cycle analysis: MM cells cultured with HNK were harvested, fixed with 70% ethanol, and pretreated with 250 μg/mL of RNAse (Sigma, St Louis, Mo.). Cells were stained with propidium iodide (PI; 50 μg/mL; Sigma, St Louis, Mo.), and cell cycle profile was determined by using the program M software on an EPICS XL flow cytometer (Beckman Coulter, Hialeah, Fla.). Detection of apoptosis and caspase-3 activity: TdT-mediated d-UTP nick end labeling (TUNEL) assay (MBL, Nagoya, Japan) and APO 2.7 staining (Immunotech, Marseille, France) were used to determine apoptosis. In brief, cells were fixed and permeabilzed by 4% paraformaldehyde and 70% ethanol, respectively, and incubated with a mixture of FITC-dUTP and TdT for 1 h at 37° C. for TUNEL assay. For detection of mitochondrial membrane protein 7A6 expression on apoptotic cells, cells were incubated with APO 2.7 reagent for 20 minutes. Fluorescence intensity of TUNEL and APO 2.7 staining was determined using on EPICS XL flow cytometer. Cytotoxicity was determined by trypan blue exclusion assay. […] Cell growth and induction of apoptosis were determined both by colorimetric assay and now cytometric detection of APO2.7 after 48 h treatment. […] Proliferation of MM cells was then assessed by [^3H]-thymidine uptake. […] DNA synthesis was measured by [^3H]-thymidine uptake. […] Angiogenesis assay: The anti-angiogenic effect of HNK was determined using an In Vitro Angiogenesis Assay Kit (Chemicon, Temecula, Calif.). […] After 6 h, tube formation by endothelial cells was evaluated. Direct toxicity of HNK against HUVEC was determined by calorimetric assay. […]

The subject of a further series is MM.1S cells. Nature of the series: APO2.7 staining. The class given is cell-based, human. To be noted: 10 ug/ml, 24 h. On the procedure:
as §1

A further series has as its system normal PBMNCs. The series can be described thus: APO2.7 staining. The class given is cell-based, human. To be noted: 15 ug/ml, 48 h, n=3. How it is done: as §1

Procedure for KBM-5 cells: KBM-5 cells (5000 cells/0.1 ml) were incubated at 37° C. with TNF, paclitaxel or doxorubicin in the presence and absence of 5 mM honokiol as indicated for 72 h, and the viable cells were assayed using the MTT reagent. The results are expressed as mean cytotoxicity ±SD from triplicate cultures.
Cytotoxicity assay Cytotoxicity was assayed by the modified tetrazolium salt 3-(4-5-dimethylthilozol-2-yl)-2-5-diphenyl-tetrazolium bromide (MTT) assay as described previously (Bharti, A. C., et al. 2004 J. Biol. Chem. 279:6065-6076).
The effect of honokiol on TNF and chemotherapeutic agent-induced apoptosis was examined by the MTT assay.
Procedure for NF-kB in A293 cells: A293 cells were transiently transfected with an NF-kB-containing plasmid linked to the SEAP gene and then treated with the indicated concentrations of honokiol. After 24 h in culture with 0.1 nM TNF, cell supernatants were collected and assayed for SEAP activity. Results are expressed as fold activity over the activity of the vector control. […] A293 cells were transiently transfected with the indicated plasmids along with an NF-kB-containing plasmid linked to the SEAP gene and then left either untreated or treated with 25 mM honokiol for 12 h. Cell supernatants were assayed for secreted alkaline phosphatase activity. Results are expressed as fold activity over the activity of the vector control. Bars indicate standard deviation.
NF-kB-dependent reporter gene transcription. The effect of honokiol on TNF-induced NF-kB dependent reporter gene transcription in A293 cells was measured as previously described (Shishodia, S., et al. 2003 Cancer Res. 63:4375-4383).
To test the effect of honokiol on NF-kB-dependent gene transcription, cells were transiently transfected with the NF-kB-regulated SEAP reporter construct and then stimulated with TNF.

On to `C=CCc1ccc(O)c(-c2ccc(O)c(CC=C)c2)c1` [HNK, Honokiol], for which the “glucose uptake by insulin” value in the series with rat papillary muscles was “potentiates glucose uptake by insulin”. For the same compound, the “cytotoxic effects of TNF and chemotherapeutic agents (MTT)” value in the series with KBM-5 cells is “enhanced the cytotoxic effects of TNF, paclitaxel, and doxorubicin”. In the series with MCF-7 cells, the “annexin V-positive, PI-negative cells” value is given as 16%±3%. For the same compound, the “SEAP expression induced by TNFR1, TRADD, TRAF2, NIK, IKKb, and p65 plasmids” value in the series with NF-kB in A293 cells is recorded as “suppressed SEAP expression in all cells except those transfected with p65”. In addition, the “tube formation by endothelial cells” value in the series on HUVEC is reported as “significantly inhibited the tube formation”. In addition, the APO2.7 positive cells with RPM18226 cells was found to be 32.9±0.6%; in the series with MM.1S cells, 21.7±3.4%. For the same compound, in the series on normal PBMNCs, the “APO2.7 positive cells in normal PBMNCs” value is recorded as “did not induce APO2.7 positive cells”.
